Consider 1 compound from ChEMBL document CHEMBL5365474, “Discovery of a First-in-Class CD38 Inhibitor for the Treatment of Mitochondrial Myopathy” (J Med Chem, 2023).

Values after ≈ are worked out from the molar mass of the structure shown.

The series in a line: physchem. To be noted: PBS, pH 7.4.

In the case of `O=C(Nc1cccnc1)c1cc(C(F)(F)F)nc(-n2ccnc2)n1`, the solubility (usually how much of the substance goes into solution per volume) at 2 h was found to be 48 µM (≈ 16 µg/mL).
